Assay results reported in patent publication US10968196B2, “Substituted β-lapachones for treating cancer” (University of Pittsburgh—Of the Commonwealth System of …, priority 2015, dated 2021).

System: A549 cells
Assay: Vacuole formation by phase contrast microscopy
Type: cell-based
Conditions: A549, 6 μM, 20 h, phase contrast microscopy (FIG. 3D)
Procedure: (3A) A549 non-small cell lung cancer cells were treated with XJB-OMe, 3-hydroxy-β-lapachone (14), or XJB-lapachone (18) at indicated concentrations for 24 h. Cell viability was determined by a CellTiter-Blue assay. Data represents the mean±SEM. (3B) PEO1 ovarian cancer cells, MDA-MB-231 breast cancer cells, and 983B melanoma cells were treated with XJB-lapachone (18) at indicated concentrations for 24 h. Cell viability was determined by a CellTiter-Blue assay. Data represents the mean±SEM. (3C) Equal numbers of A549 and IMR90 lung fibroblast cells were treated with 10 μM XJB-lapachone (18) for 4 h. XJB-lapachone was then washed away and cells were incubated in drug free media for 3 days. Cell viability was determined by a CellTiter-Blue assay. (3D) A549 cells were treated with XJB-OMe, 3-hydroxy-β-lapachone (14), or XJB-lapachone (18) at 6 μM concentrations for 20 h. The formation of vacuoles was examined by phase contrast microscopy. Representative images are shown. (3E) A549 cells were treated as described above. Apoptotic and necrotic cell death were determined by Annexin V and PI staining. Representative images are shown.
Microscopy: For vacuole imaging, A549 cells were plated in 12-well plate, treated with compounds and the phase contrast images were captured using a Nikon Eclipse TS100 inverted microscope. […]

Structure (SMILES): CC(C)C[C@@H](/C=C/[C@H](Cc1ccccc1)C(=O)N1CCC[C@H]1C(=O)N[C@H](C(=O)N[C@@H](CCCNC(=O)OCc1ccccc1)C(=O)NCCC(=O)OC1CC2=C(OC1(C)C)c1ccccc1C(=O)C2=O)C(C)C)NC(=O)OC(C)(C)C (stereo partly drawn) [XJB-lapachone, 2,2-Dimethyl-5,6-dioxo-3,4,5,6-tetrahydro-2H-benzo[h]chromen-3-yl 3-((S)-2-((S)-2-((S)-1-((2S,5S,E)-2-benzyl-5-((tert-butoxycarbonyl)amino)-7-methyloct-3-enoyl)pyrrolidine-2-carboxamido)-3-methylbutanamido)-5-(((benzyloxy)carbonyl)amino)pentanamido) propanoate]
- vacuolization (formation of vacuoles): extensive vacuolization
